Data published in patent US20210002282A1 (DR. REDDY'S LABORATORIES LIMITED, priority 2018, published 2021).
Like-named read-outs stand apart in the source and are kept apart here.

Tests used:
[1] = Hygroscopicity of solid forms (statement only); assay type: physicochemical
[2] = 25° C. ± 2° C. 60% RH ± 5RH, 1 Month
[3] = 25° C. ± 2° C. 60% RH ± 5RH, 3 Months
[4] = 25° C. ± 2° C. 60% RH ± 5RH, Initial
[5] = 40° C. ± 2° C. 75% RH ± 5RH, 1 Month
[6] = 40° C. ± 2° C. 75% RH ± 5RH, 3 Months
[7] = 40° C. ± 2° C. 75% RH ± 5RH, Initial

Row | % Total Impurities [2] [%] | % Water content [2] [%] | Description [2] | % Total Impurities [3] [%] | % Water content [3] [%] | Description [3] | % Total Impurities [4] [%] | % Water content [4] [%] | Description [4] | PXRD [4] | % Total Impurities [5] [%] | % Water content [5] [%] | Description [5] | % Total Impurities [6] [%] | % Water content [6] [%] | Description [6] | % Total Impurities [7] [%] | % Water content [7] [%] | Description [7] | PXRD [7] | Compound | further results
1 | 0.46 | 0.10 | White | 0.39 | 0.19 | White | 0.38 | 0.13 | White | Crystalline | 0.45 | 0.16 | White | 0.45 | 0.29 | White | 0.38 | 0.13 | White | Crystalline | C=CC(=O)N1CCC[C@@H](n2nc(-c3ccc(Oc4ccccc4)cc3)c3c(N)ncnc32)C1 [Form D18, Ibrutinib] | Octanoic acid content (%) [2]: 24.70%; Octanoic acid content (%) [3]: 25.57%; Octanoic acid content (%) [4]: 25.24%; Octanoic acid content (%) [5]: 24.70%; Octanoic acid content (%) [6]: 24.99%; Octanoic acid content (%) [7]: 25.24%; hygroscopicity [1]: non-hygroscopic
2 | 0.42 | 0.20 | Off-White | 0.42 | 0.09 | Off-White | 0.41 | 0.19 | Off-White | Crystalline | 0.49 | 0.13 | Off-White | 0.50 | 0.11 | Off-White | 0.41 | 0.19 | Off-White | Crystalline | C=CC(=O)N1CCC[C@@H](n2nc(-c3ccc(Oc4ccccc4)cc3)c3c(N)ncnc32)C1 [Form D19, Ibrutinib] | Hexanoic acid content (%) [2]: 21.73%; Hexanoic acid content (%) [3]: 21.24%; Hexanoic acid content (%) [4]: 23.13%; Hexanoic acid content (%) [5]: 21.48%; Hexanoic acid content (%) [6]: 20.79%; Hexanoic acid content (%) [7]: 23.13%; hygroscopicity [1]: non-hygroscopic
